Data reported in patent publication US20100317528A1, “HERBICIDE CONTAINING BENZOYLPYRAZOLE COMPOUND” (ISHIHARA SANGYO KAISHA, LTD., priority 2006, published 2010).

Legend:
Format in all cases: in vivo
[1] = system: prickly sida (Sida spinosa L.); experiment: Test Example 1: foliar treatment, upland pot test, prickly sida; conditions: for inhibition at 31 g/ha / Growth inhibition rate (%) Prickly sida: 31 g/ha active ingredient, observed 17th to 25th day after application
[2] = system: prickly sida (Sida spinosa L.); experiment: Test Example 2: soil application on the day after sowing, prickly sida; conditions: 250 g/ha active ingredient, observed 19th to 28th day after application; for inhibition at 250 g/ha: Sida spinosa, read-out: Growth inhibition rate (%) Prickly sida
Outline: (§1)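 Day-after-sowing soil treatment in 1/170,000 ha pots of upland soil, sprayed at 500 L/ha water volume; % growth inhibition rated by eye 19–28 days later.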

[3] = system: barnyardgrass (Echinochloa crus-galli L.); experiment: Test Example 1: foliar treatment, upland pot test, barnyardgrass; conditions: for inhibition at 31 g/ha / Growth inhibition rate (%) Barnyardgrass: 31 g/ha active ingredient, observed 17th to 25th day after application
[4] = system: wheat (Triticum spp.); experiment: Test Example 2: soil application on the day after sowing, wheat; conditions: 250 g/ha active ingredient, observed 19th to 28th day after application; for inhibition at 250 g/ha: Triticum, read-out: Growth inhibition rate (%) Wheat
Source text: Upland field soil was put into a 1/170,000 hectare pot, and seeds of various plants barnyardgrass (Echinochloa crus-galli L.), crabgrass (Digitaria sanquinalis L.), green foxtail (Setaria viridis L.), redroot pigweed (Amaranthus retroflexus L.), prickly sida (Sida spinosa L.), velvetleaf (Abutilon theophrasti MEDIC.), rice (Oryza sativa L.), wheat (Triticum spp.), corn (Zea mays L.) and soybean (Glycine max Merr.)) were sown. On the day after sowing, wettable powders or emulsifiable concentrates of the compounds of the above formula (I) prepared in accordance with a conventional preparation method, were weighed so that the active ingredients became the prescribed amounts, and diluted with water in an amount corresponding to 500 liter per 1 hectare, followed by soil application with a small sprayer.
On the 19th to 28th day after the application, the state of growth of the respective plants was visually observed, and the herbicidal effect was evaluated by a growth inhibition rate (%) of from 0 (equivalent to the non-treated area) to 100% (complete kill).

[5] = system: redroot pigweed (Amaranthus retroflexus L.); experiment: Test Example 1: foliar treatment, upland pot test, redroot pigweed; conditions: for inhibition at 31 g/ha / Growth inhibition rate (%) Redroot pigweed: 31 g/ha active ingredient, observed 17th to 25th day after application
Outline: (§2)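 Upland soil pots, sown; foliar spray at pigweed cotyledon–2.0 leaf, velvetleaf 0.1–1.5 leaf, rice 1.0–3.0 leaf, wheat 1.7–3.4 leaf. WP/EC formulations, prescribed a.i. rate, 500 L/ha spray volume + 0.1 vol % spreader. Visual % inhibition, d17–25.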

[6] = system: velvetleaf (Abutilon theophrasti MEDIC.); experiment: Test Example 2: soil application on the day after sowing, velvetleaf; conditions: 250 g/ha active ingredient, observed 19th to 28th day after application; for inhibition at 250 g/ha: Abutilon theophrasti, read-out: Growth inhibition rate (%) Velvetleaf
Outline: as §1

[7] = system: corn (Zea mays L.); experiment: Test Example 2: soil application on the day after sowing, corn; conditions: 250 g/ha active ingredient, observed 19th to 28th day after application; for inhibition at 250 g/ha: Zea mays, read-out: Growth inhibition rate (%) Corn
Outline: as §1

[8] = system: barnyardgrass (Echinochloa crus-galli L.); experiment: Test Example 2: soil application on the day after sowing, barnyardgrass; conditions: 250 g/ha active ingredient, observed 19th to 28th day after application; for inhibition at 250 g/ha: Echinochloa crus-galli, read-out: Growth inhibition rate (%) Barnyardgrass
Outline: as §1

[9] = system: redroot pigweed (Amaranthus retroflexus L.); experiment: Test Example 2: soil application on the day after sowing, redroot pigweed; conditions: 250 g/ha active ingredient, observed 19th to 28th day after application; for inhibition at 250 g/ha: Amaranthus retroflexus, read-out: Growth inhibition rate (%) Redroot pigweed
Outline: as §1

[10] = system: corn (Zea mays L.); experiment: Test Example 1: foliar treatment, upland pot test, corn; conditions: for inhibition at 31 g/ha / Growth inhibition rate (%) Corn: 31 g/ha active ingredient, observed 17th to 25th day after application
[11] = system: rice (Oryza sativa L.); experiment: Test Example 1: foliar treatment, upland pot test, rice; conditions: for inhibition at 31 g/ha / Growth inhibition rate (%) Rice: 31 g/ha active ingredient, observed 17th to 25th day after application
Outline: as §2

[12] = system: green foxtail (Setaria viridis L.); experiment: Test Example 1: foliar treatment, upland pot test, green foxtail; conditions: for inhibition at 31 g/ha / Growth inhibition rate (%) Green foxtail: 31 g/ha active ingredient, observed 17th to 25th day after application
[13] = system: velvetleaf (Abutilon theophrasti MEDIC.); experiment: Test Example 1: foliar treatment, upland pot test, velvetleaf; conditions: for inhibition at 31 g/ha / Growth inhibition rate (%) Velvetleaf: 31 g/ha active ingredient, observed 17th to 25th day after application
Outline: as §2

[14] = system: wheat (Triticum spp.); experiment: Test Example 1: foliar treatment, upland pot test, wheat; conditions: for inhibition at 31 g/ha / Growth inhibition rate (%) Wheat: 31 g/ha active ingredient, observed 17th to 25th day after application
Outline: as §2

[15] = system: rice (Oryza sativa L.); experiment: Test Example 2: soil application on the day after sowing, rice; conditions: 250 g/ha active ingredient, observed 19th to 28th day after application; for inhibition at 250 g/ha: Oryza sativa, read-out: Growth inhibition rate (%) Rice
Outline: as §1

[16] = system: soybean (Glycine max Merr.); experiment: Test Example 2: soil application on the day after sowing, soybean; conditions: 250 g/ha active ingredient, observed 19th to 28th day after application; for inhibition at 250 g/ha: Glycine max, read-out: Growth inhibition rate (%) Soybean
Outline: as §1

[17] = system: soybean (Glycine max Merr.); experiment: Test Example 1: foliar treatment, upland pot test, soybean; conditions: for inhibition at 31 g/ha / Growth inhibition rate (%) Soybean: 31 g/ha active ingredient, observed 17th to 25th day after application
[18] = system: green foxtail (Setaria viridis L.); experiment: Test Example 2: soil application on the day after sowing, green foxtail; conditions: 250 g/ha active ingredient, observed 19th to 28th day after application; for inhibition at 250 g/ha: Setaria viridis, read-out: Growth inhibition rate (%) Green foxtail
Outline: as §1

[19] = system: crabgrass (Digitaria sanquinalis L.); experiment: Test Example 2: soil application on the day after sowing, crabgrass; conditions: 250 g/ha active ingredient, observed 19th to 28th day after application; for inhibition at 250 g/ha: Digitaria, read-out: Growth inhibition rate (%) Crabgrass
Outline: as §1

[20] = system: crabgrass (Digitaria sanguinalis L.); experiment: Test Example 1: foliar treatment, upland pot test, crabgrass; conditions: for inhibition at 31 g/ha / Growth inhibition rate (%) Crabgrass: 31 g/ha active ingredient, observed 17th to 25th day after application
[21] = Sida spinosa, read-out: Growth inhibition rate (%) Prickly sida
[22] = Echinochloa crus-galli, read-out: Growth inhibition rate (%) Barnyardgrass
[23] = Amaranthus retroflexus, read-out: Growth inhibition rate (%) Redroot pigweed
[24] = Zea mays, read-out: Growth inhibition rate (%) Corn
[25] = Oryza sativa, read-out: Growth inhibition rate (%) Rice
[26] = Setaria viridis, read-out: Growth inhibition rate (%) Green foxtail
[27] = Abutilon theophrasti, read-out: Growth inhibition rate (%) Velvetleaf
[28] = Triticum, read-out: Growth inhibition rate (%) Wheat
[29] = Glycine max, read-out: Growth inhibition rate (%) Soybean
[30] = Digitaria sanguinalis, read-out: Growth inhibition rate (%) Crabgrass

SMILES	inhibition at 250 g/ha [2] [%]	inhibition at 250 g/ha [4] [%]	inhibition at 250 g/ha [6] [%]	inhibition at 250 g/ha [7] [%]	inhibition at 250 g/ha [8] [%]	inhibition at 250 g/ha [9] [%]	inhibition at 250 g/ha [15] [%]	inhibition at 250 g/ha [16] [%]	inhibition at 250 g/ha [18] [%]	inhibition at 250 g/ha [19] [%]	inhibition at 31 g/ha [1, 21] [%]	inhibition at 31 g/ha [3, 22] [%]	inhibition at 31 g/ha [5, 23] [%]	inhibition at 31 g/ha [10, 24] [%]	inhibition at 31 g/ha [11, 25] [%]	inhibition at 31 g/ha [12, 26] [%]	inhibition at 31 g/ha [13, 27] [%]	inhibition at 31 g/ha [14, 28] [%]	inhibition at 31 g/ha [17, 29] [%]	inhibition at 31 g/ha [20, 30] [%]	further results
CCn1ncc(C(=O)c2ccc(S(C)(=O)=O)c(OCCC3OCCO3)c2Cl)c1O [compound 244]	60	0	80	0	100	90	80	0	70	90	–	–	–	–	–	–	–	–	–	–	inhibition at 63 g/ha ([1]; Sida spinosa, 63 g/ha active ingredient, observed 21st day after application, read-out: Growth inhibition rate (%) Prickly sida): 50%; inhibition at 63 g/ha ([3]; Echinochloa crus-galli, 63 g/ha active ingredient, observed 21st day after application, read-out: Growth inhibition rate (%) Barnyardgrass): 50%; inhibition at 63 g/ha ([5]; Amaranthus retroflexus, 63 g/ha active ingredient, observed 21st day after application, read-out: Growth inhibition rate (%) Redroot pigweed): 80%; inhibition at 63 g/ha ([10]; Zea mays, 63 g/ha active ingredient, observed 21st day after application, read-out: Growth inhibition rate (%) Corn): 0%; inhibition at 63 g/ha ([11]; Oryza sativa, 63 g/ha active ingredient, observed 21st day after application, read-out: Growth inhibition rate (%) Rice): 10%; inhibition at 63 g/ha ([12]; Setaria viridis, 63 g/ha active ingredient, observed 21st day after application, read-out: Growth inhibition rate (%) Green foxtail): 40%; inhibition at 63 g/ha ([13]; Abutilon theophrasti, 63 g/ha active ingredient, observed 21st day after application, read-out: Growth inhibition rate (%) Velvetleaf): 70%; inhibition at 63 g/ha ([14]; Triticum, 63 g/ha active ingredient, observed 21st day after application, read-out: Growth inhibition rate (%) Wheat): 0%; inhibition at 63 g/ha ([17]; Glycine max, 63 g/ha active ingredient, observed 21st day after application, read-out: Growth inhibition rate (%) Soybean): 70%; inhibition at 63 g/ha ([20]; Digitaria sanguinalis, 63 g/ha active ingredient, observed 21st day after application, read-out: Growth inhibition rate (%) Crabgrass): 20%
CCOC(=O)c1c(S(C)(=O)=O)ccc(C(=O)c2cnn(CC)c2O)c1Cl [compound 153]	80	10	100	10	100	100	70	0	100	100	70	90	90	0	40	60	70	0	70	80	–
CCc1nn(C)c(O)c1C(=O)c1ccc(S(C)(=O)=O)c(OCCOC)c1C [compound 261]	–	–	–	–	–	–	–	–	–	–	–	–	–	–	–	–	–	–	–	–	Growth inhibition rate (%) Prickly sida [1]: 50%; Growth inhibition rate (%) Prickly sida [2]: 20%; Growth inhibition rate (%) Barnyardgrass [3]: 90%; Growth inhibition rate (%) Wheat [4]: 0%; Growth inhibition rate (%) Redroot pigweed [5]: 95%; Growth inhibition rate (%) Velvetleaf [6]: 30%; Growth inhibition rate (%) Corn [7]: 20%; Growth inhibition rate (%) Barnyardgrass [8]: 50%; Growth inhibition rate (%) Redroot pigweed [9]: 100%; Growth inhibition rate (%) Corn [10]: 0%; Growth inhibition rate (%) Rice [11]: 80%; Growth inhibition rate (%) Green foxtail [12]: 80%; Growth inhibition rate (%) Velvetleaf [13]: 95%; Growth inhibition rate (%) Wheat [14]: 5%; Growth inhibition rate (%) Rice [15]: 20%; Growth inhibition rate (%) Soybean [16]: 0%; Growth inhibition rate (%) Soybean [17]: 50%; Growth inhibition rate (%) Green foxtail [18]: 60%; Growth inhibition rate (%) Crabgrass [19]: 95%; Growth inhibition rate (%) Crabgrass [20]: 90%
COCCOc1c(S(C)(=O)=O)ccc(C(=O)c2c(C)nn(C)c2O)c1C [compound 259]	–	–	–	–	–	–	–	–	–	–	–	–	–	–	–	–	–	–	–	–	Growth inhibition rate (%) Prickly sida [1]: 60%; Growth inhibition rate (%) Prickly sida [2]: 0%; Growth inhibition rate (%) Barnyardgrass [3]: 95%; Growth inhibition rate (%) Wheat [4]: 0%; Growth inhibition rate (%) Redroot pigweed [5]: 95%; Growth inhibition rate (%) Velvetleaf [6]: 70%; Growth inhibition rate (%) Corn [7]: 0%; Growth inhibition rate (%) Barnyardgrass [8]: 10%; Growth inhibition rate (%) Redroot pigweed [9]: 90%; Growth inhibition rate (%) Corn [10]: 0%; Growth inhibition rate (%) Rice [11]: 70%; Growth inhibition rate (%) Green foxtail [12]: 100%; Growth inhibition rate (%) Velvetleaf [13]: 98%; Growth inhibition rate (%) Wheat [14]: 0%; Growth inhibition rate (%) Rice [15]: 10%; Growth inhibition rate (%) Soybean [16]: 20%; Growth inhibition rate (%) Soybean [17]: 95%; Growth inhibition rate (%) Green foxtail [18]: 60%; Growth inhibition rate (%) Crabgrass [19]: 100%; Growth inhibition rate (%) Crabgrass [20]: 95%
Cc1c(C(=O)c2cnn(C)c2O)ccc(S(C)(=O)=O)c1C#N [compound 171]	50	0	40	0	70	100	10	10	40	80	70	80	80	0	40	70	75	0	70	60	–
